Like-named read-outs stand apart in the source and are kept apart here.
Columns and labels:
[1] = molecular target: T1, catalytic domain of stromelysin (Homo sapiens, UniProt P08254); assay: Enzymatic assay, cleavage of a fluorogenic substrate by stromelysin; type: biochemical
T1 construct: initiating methionine (N); made in house; host or cells: E. coli BL21(DE3)/pLysS, pET3d
Description: The target molecule was the catalytic domain of stromelysin prepared in accordance with the procedures of Example 1. […] The KD values so obtained were compared to an inhibition constant KI as determined in an enzymatic assay.
The enzymatic assay measured the rate of cleavage of a fluorogenic substrate by following the fluorescence increase upon peptide cleavage which causes a separation between the fluorophore and quencher. Enzymatic activity was measured using a matrix of different concentrations of acetohydroxamic acid and biaryl compounds.
Individual compound concentration varied due to solubility and potency.
All NMR measurements were performed in the presence of 500 mM acetohydroxamic acid, except for the titration of acetohydroxamic acid itself. Dissociation constants were obtained from the dependence of the observed chemical shift changes upon added ligand. Inhibition constants were then obtained from the inhibition data using standard procedures.

[2] = molecular target: T1, catalytic domain of stromelysin; assay: NMR binding (2D 15N/1H HSQC) to the catalytic domain of stromelysin
Description: The catalytic domain of stromelysin was prepared in accordance with the procedures of Example 1. The protein solutions used in the screening assay contained the uniformly ^15 N-labeled catalytic domain of stromelysin (0.3 mM), acetohydroxamic acid (500 mM), CaCl2 (20 mM), and sodium azide (0.5%) in a H2 O/D2 O (9/1) TRIS buffered solution (50 mM, pH=7.0).
Two-dimensional ^15 N/^1 H NMR spectra were generated at 29° C. on a Bruker AMX500 NMR spectrometer equipped with a triple resonance probe and Bruker sample changer. The ^15 N/^1 H HSQC spectra were acquired as 80x1024 complex points using sweep widths of 2000 Hz (^15 N, t^1) and 8333 Hz (^1 H, t2). […] All NMR spectra were processed and analyzed on Silicon Graphics computers using in-house-written software. […]
Various biaryl compounds of structure I were tested for binding to stromelysin at differing concentrations. The ^15 N/^1 H spectra generated at each concentration were evaluated to quantify differences in the spectra as a function of compound concentration. A binding or dissociation constant (KD)was calculated, using standard procedures well known in the art, from those differences. […]
In a first study, binding constants were determined, both by the NMR method of the present invention, and by a prior an enzymatic assay. […] The KD values so obtained were compared to an inhibition constant KI as determined in an enzymatic assay. […]

[3] = molecular target: T2, Stromelysin (Homo sapiens, UniProt P08254); assay: Inhibition of degradation (autolysis) of stromelysin; type: biochemical; details: 500 mM
T2 construct: initiating methionine (N); made in house; host or cells: E. coli BL21(DE3)/pLysS, pET3d
T2 sequence (P08254 100-273): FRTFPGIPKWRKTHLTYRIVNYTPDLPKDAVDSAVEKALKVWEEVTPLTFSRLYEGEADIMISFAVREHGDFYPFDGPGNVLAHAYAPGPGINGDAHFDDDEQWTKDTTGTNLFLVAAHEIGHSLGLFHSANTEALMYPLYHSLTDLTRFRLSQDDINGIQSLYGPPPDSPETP
Description: Studies were performed to design new ligands that bound to the catalytic domain of stromelysin. Because stromelysin undergoes autolysis, an inhibitor was sought to block the degradation of stromelysin. That inhibitor would facilitate the screening of other potential ligands that bind to other sites on the enzyme.
A variety of hydroxamic acids of the general formula R-(CO)NHOH were screened for binding to stromelysin using the procedures set forth in Example 2.

[4] = Water solubility; type: physicochemical

T1 sequence (P08254 100-273): as above

| SMILES | Ki [1] | Kd [2] | Kd ([2]; Table 3, in the presence of 500 mM acetohydroxamic acid, read-out: NMR KD) | inhibition of the degradation of the enzyme [3] | water solubility [4] |
| --- | --- | --- | --- | --- | --- |
| c1ccc(-c2ccncc2)cc1 [Compound 7] | 320 µM | 200 µM | 170 µM | – | – |
| CC(=O)NO [Acetohydroxamic acid, acetohydroxamic acid] | – | – | – | inhibited the degradation of the enzyme | good water solubility |

From patent US5698401A, “Use of nuclear magnetic resonance to identify ligands to target biomolecules” (priority 1995, dated 1997)
